The text below walks through data of patent US9663528B2, “Substituted 1,2,3,4,6,8,12,12a-octahydro-1,4-methanodipyrido[1,2-a:1',2'-d]pyrazines and methods for treating viral infections” (priority 2012, dated 2017).

The term Emax denotes the maximal effect, on the per cent scale that the assay sets.

For one data set, the target named is PXR (Homo sapiens (Human), UniProt O75469). Description: Human PXR activation assay (luciferase reporter gene assay, DPX2 cells). It counts as cell-based. Particulars: human. Here is the method:
A stably transformed tumor cell line (DPX2) was plated on 96-well microtiter plates. DPX2 cells harbor the human PXR gene (NR112) and a luciferase reporter gene linked to two promoters identified in the human CYP3A4 gene, namely XREM and PXRE. […] The number of viable cells was determined and the reporter gene activity was assessed. Positive control: […]

The nature of the next data set: in vitro. The conditions noted are these: human, CC50 nM in MT-4. Here is the method:
For the antiviral assay utilizing MT4 cells, 0.4 μL of […] test concentration of 3-fold serially diluted compound in DMSO was added to 40 μL of cell growth medium (RPMI 1640, 10% FBS, 1% penicilline/Streptomycine, 1% L-Glutamine, 1% HEPES) in each well of 384-well assay plates (10 concentrations) in quidruplicate.
1 mL aliquots of 2×10^6 MT4 cells are pre-infected for 1 and 3 hours respectively at 37° C. with 25 μL (MT4) or of either cell growth medium (mock-infected) or a fresh 1:250 dilution of an HIV-IIIb concentrated ABI stock (0.004 m.o.i. for MT4 cells). Infected and uninfected cells are diluted in cell growth medium and 35 μL of 2000 (for MT4) cells is added to each well of the assay plates.
Assay plates were then incubated in a 37° C. incubator. After 5 days of incubation, 25 μL of 2× concentrated CellTiter-Glo™ Reagent (catalog #G7573, Promega Biosciences, Inc., Madison, Wis.) was added to each well of the assay plate. Cell lysis was carried out by incubating at room temperature for 2-3 minutes, and then chemiluminescence was read using the Envision reader (PerkinElmer).

PXR, sequence (O75469 whole entry): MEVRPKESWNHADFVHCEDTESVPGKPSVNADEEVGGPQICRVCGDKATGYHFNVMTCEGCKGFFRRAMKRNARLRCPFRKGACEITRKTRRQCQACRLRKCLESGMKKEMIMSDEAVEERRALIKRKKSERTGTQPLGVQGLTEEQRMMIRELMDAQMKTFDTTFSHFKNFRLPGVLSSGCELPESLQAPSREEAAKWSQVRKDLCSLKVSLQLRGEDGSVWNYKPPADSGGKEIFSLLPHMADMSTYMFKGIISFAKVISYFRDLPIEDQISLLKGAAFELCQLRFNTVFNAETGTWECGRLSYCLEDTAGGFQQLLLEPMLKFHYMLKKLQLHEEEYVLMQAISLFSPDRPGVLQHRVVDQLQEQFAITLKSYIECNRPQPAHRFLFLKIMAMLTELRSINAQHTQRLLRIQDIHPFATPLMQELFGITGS

Molecule `O=C(NCc1ccc(F)c(F)c1F)c1cn2c(c(O)c1=O)C(=O)N1[C@@H]3CC[C@@H](C3)O[C@H]1C2` [Compound 44, (13aS)-8-hydroxy-7,9-dioxo-N-(2,3,4-trifluorobenzyl)-2,3,4,5,7,9,13,13a-octahydro-2,5-methanopyrido[1′,2′:4,5]pyrazino[2,1-b][1,3]oxazepine-10-carboxamide] came in with an Emax at 24 h, 15 µM on PXR of 4%. In addition, in the data set “in vitro”, the CC50 at 5 days turned out to be 9870 nM.

Molecule `O=C(NCc1cccc(Cl)c1F)c1cn2c(c(O)c1=O)C(=O)N1[C@H]3CC[C@H](C3)[C@@H]1C2` [Compound 90, (1R,4S,12aR)-N-(3-chloro-2-fluorobenzyl)-7-hydroxy-6,8-dioxo-1,2,3,4,6,8,12,12a-octahydro-1,4-methanodipyrido[1,2-a:1′,2′-d]pyrazine-9-carboxamide] returned an Emax at 24 h, 15 µM at PXR of 11%. The CC50 at 5 days in “in vitro” was found to be 8090 nM.

For the molecule `O=C(NCc1ccc(F)cc1F)c1cn2c(c(O)c1=O)C(=O)N1C(C2)[N@]2CC[C@H]1C2` (stereo partly drawn) [Compound 6, (1R,4S)-N-(2,4-difluorobenzyl)-7-hydroxy-6,8-dioxo-3,4,6,8,12,12a-hexahydro-2H-1,4-methanopyrido[1′,2′:4,5]pyrazino[1,2-a]pyrimidine-9-carboxamide], the maximal response (Emax) at 24 h, 15 µM on PXR was 0%.

`C[C@@H]1C[C@H]2C[C@@H]1[C@@H]1Cn3cc(C(=O)NCc4c(F)cc(F)cc4F)c(=O)c(O)c3C(=O)N21` [Compound 84, (1S,2R,4S,12aR)-7-hydroxy-2-methyl-6,8-dioxo-N-(2,4,6-trifluorobenzyl)-1,2,3,4,6,8,12,12a-octahydro-1,4-methanodipyrido[1,2-a:1′,2′-d]pyrazine-9-carboxamide] came in with an Emax at 24 h, 15 µM on PXR of 21%. Moreover, the CC50 at 5 days in “in vitro” came to 9730 nM.

`O=C(NCc1ccc(F)cc1C(F)(F)F)c1cn2c(c(O)c1=O)C(=O)N1[C@H]3CC[C@H](C3)[C@@H]1C2` [Compound 67, (1R,4S,12aR)-N-(4-fluoro-2-(trifluoromethyl)benzyl)-7-hydroxy-6,8-dioxo-1,2,3,4,6,8,12,12a-octahydro-1,4-methanodipyrido[1,2-a:1′,2′-d]pyrazine-9-carboxamide] came in with an Emax at 24 h, 15 µM at PXR of 0%. Besides, the CC50 at 5 days in the data set “in vitro” is 2980 nM.

`O=C(NCc1ccc(F)cc1)c1cn2c(c(O)c1=O)C(=O)N1[C@@H]3CC[C@@H](C3)O[C@H]1C2` [Compound 15, (2S,5R,13aS)-N-(4-fluorobenzyl)-8-hydroxy-7,9-dioxo-2,3,4,5,7,9,13,13a-octahydro-2,5-methanopyrido[1′,2′:4,5]pyrazino[2,1-b][1,3]oxazepine-10-carboxamide] came in with an Emax at 24 h, 15 µM at PXR of 20%. In addition, the CC50 at 5 days in the data set “in vitro” is 16300 nM.

For `O=C(NCc1ccc(F)c(Cl)c1F)c1cn2c(c(O)c1=O)C(=O)N1[C@H]3CC[C@H](C3)[C@H]1C2` [Compound 61, (1R,4S,12aS)-N-(3-chloro-2,4-difluorobenzyl)-7-hydroxy-6,8-dioxo-1,2,3,4,6,8,12,12a-octahydro-1,4-methanodipyrido[1,2-a:1′,2′-d]pyrazine-9-carboxamide], on PXR, the Emax at 24 h, 15 µM is 1%. Besides, in “in vitro”, the CC50 at 5 days turned out to be 25900 nM.

For `O=C(NCc1c(F)cc(F)cc1F)c1cn2c(c(O)c1=O)C(=O)N1[C@H](C2)[C@H]2C[C@H](F)[C@@H]1C2` [Compound 81, (1R,3S,4S,12aS)-3-fluoro-7-hydroxy-6,8-dioxo-N-(2,4,6-trifluorobenzyl)-1,2,3,4,6,8,12,12a-octahydro-1,4-methanodipyrido[1,2-a:1′,2′-d]pyrazine-9-carboxamide], the Emax at 24 h, 15 µM at PXR came out at 1%. The CC50 at 5 days in “in vitro” was 12300 nM.

The molecule `O=C(NCc1cc(F)c(F)cc1F)c1cn2c(c(O)c1=O)C(=O)N1[C@H]3CC[C@H](C3)[C@@H]1C2` [Compound 79, (1R,4S,12aR)-7-hydroxy-6,8-dioxo-N-(2,4,5-trifluorobenzyl)-1,2,3,4,6,8,12,12a-octahydro-1,4-methanodipyrido[1,2-a:1′,2′-d]pyrazine-9-carboxamide] registered an Emax at 24 h, 15 µM at PXR of 0%. In addition, in the data set “in vitro”, the CC50 at 5 days amounted to 12100 nM.

On PXR, `C[C@@H](NC(=O)c1cn2c(c(O)c1=O)C(=O)N1[C@H]3CC[C@H](C3)[C@@H]1C2)c1ccc(F)cc1F` [Compound 43, (12aR)-N—((R)-1-(2,4-difluorophenyl)ethyl)-7-hydroxy-6,8-dioxo-1,2,3,4,6,8,12,12a-octahydro-1,4-methanodipyrido[1,2-a:1′,2′-d]pyrazine-9-carboxamide] displayed an Emax at 24 h, 15 µM of 18%. This molecule also registered a CC50 at 5 days in the data set “in vitro” of 10300 nM.

Consider `O=C(NCc1c(Cl)ccc(Cl)c1F)c1cn2c(c(O)c1=O)C(=O)N1[C@H]3CC[C@H](C3)[C@@H]1C2` [Compound 71, (1R,4S,12aR)-N-(3,6-dichloro-2-fluorobenzyl)-7-hydroxy-6,8-dioxo-1,2,3,4,6,8, 12,12a-octahydro-1,4-methanodipyrido[1,2-a:1′,2′-d]pyrazine-9-carboxamide], for which the Emax at 24 h, 15 µM on PXR was 3%. This molecule also yielded a CC50 at 5 days in the data set “in vitro” of 4660 nM.

With `C[C@H]1C[C@@H]2C[C@H]1N1C(=O)c3c(O)c(=O)c(C(=O)NCc4c(F)cc(F)cc4F)cn3C[C@H]21` [Compound 86, (1R,3S,4R,12aS)-7-hydroxy-3-methyl-6,8-dioxo-N-(2,4,6-trifluorobenzyl)-1,2,3,4,6,8,12,12a-octahydro-1,4-methanodipyrido[1,2-a:1′,2′-d]pyrazine-9-carboxamide], the Emax at 24 h, 15 µM on PXR is 30%. The molecule also returned a CC50 at 5 days in “in vitro” of 22400 nM.

Take `O=C(NCc1ccc(F)c(F)c1F)c1cn2c(c(O)c1=O)C(=O)N1[C@H]3CC[C@H](C3)[C@@H]1C2` [Compound 91, (1R,4S,12aR)-7-hydroxy-6,8-dioxo-N-(2,3,4-trifluorobenzyl)-1,2,3,4,6,8,12,12a-octahydro-1,4-methanodipyrido[1,2-a:1′,2′-d]pyrazine-9-carboxamide]: the Emax at 24 h, 15 µM at PXR is 3%. Besides, the CC50 at 5 days in “in vitro” was 7180 nM.

As to `O=C(NCc1c(F)cc(F)cc1F)c1cn2c(c(O)c1=O)C(=O)N1[C@H]3CCC[C@H](C3)[C@H]1C2` [Compound 85, (6aS,7R,11S)-1-hydroxy-2,13-dioxo-N-(2,4,6-trifluorobenzyl)-6,6a,7,8,9,10,11,13-octahydro-2H-7,11-methanopyrido[1′,2′:4,5]pyrazino[1,2-a]azepine-3-carboxamide], the Emax at 24 h, 15 µM at PXR is 77%. Further, the CC50 at 5 days in “in vitro” came to 10400 nM.

Molecule `O=C(NCc1ccc(F)c(Cl)c1F)c1cn2c(c(O)c1=O)C(=O)N1[C@H]3CC[C@H](C3)[C@@H]1C2` [Compound 69, (1R,4S,12aR)-N-(3-chloro-2,4-difluorobenzyl)-7-hydroxy-6,8-dioxo-1,2,3,4,6,8,12,12a-octahydro-1,4-methanodipyrido[1,2-a:1′,2′-d]pyrazine-9-carboxamide] gave an Emax at 24 h, 15 µM at PXR of 5%. The molecule further yielded a CC50 at 5 days in “in vitro” of 4770 nM.

`Cc1cccc(CNC(=O)c2cn3c(c(O)c2=O)C(=O)N2[C@H]4CC[C@H](C4)[C@@H]2C3)c1F` [Compound 70, (1R,4S,12aR)-N-(2-fluoro-3-methylbenzyl)-7-hydroxy-6,8-dioxo-1,2,3,4,6,8,12,12a-octahydro-1,4-methanodipyrido[1,2-a:1′,2′-d]pyrazine-9-carboxamide]: the Emax at 24 h, 15 µM on PXR stood at 10%. For the same molecule, the CC50 at 5 days in the data set “in vitro” came to 8410 nM.

With `O=C(NCc1cccc(Cl)c1F)c1cn2c(c(O)c1=O)C(=O)N1[C@H]3CC[C@H](C3)O[C@@H]1C2` [Compound 88, (2R,5S,13aR)-N-(3-chloro-2-fluorobenzyl)-8-hydroxy-7,9-dioxo-2,3,4,5,7,9,13,13a-octahydro-2,5-methanopyrido[1′,2′:4,5]pyrazino[2,1-b][1,3]oxazepine-10-carboxamide], the Emax at 24 h, 15 µM at PXR was found to be 27%. This molecule also showed a CC50 at 5 days in the data set “in vitro” of 3230 nM.

At PXR, `O=C(NCc1c(F)cc(F)cc1F)c1cn2c(c(O)c1=O)C(=O)N1[C@H]3CC(F)C(C3)[C@@H]1C2` (stereo in doubt) [Compound 56, (1R,2S,4R,12aR)-2-fluoro-7-hydroxy-6,8-dioxo-N-(2,4,6-trifluorobenzyl)-1,2,3,4,6,8,12,12a-octahydro-1,4-methanodipyrido[1,2-a:1′,2′-d]pyrazine-9-carboxamide] registered an Emax at 24 h, 15 µM of 3%. For the same molecule, the CC50 at 5 days in “in vitro” was 17200 nM.

`O=C(NC1(c2ccc(F)cc2F)CCCC1)c1cn2c(c(O)c1=O)C(=O)N1C(C2)O[C@H]2CC[C@@H]1C2` (stereo partly drawn) [Compound 33, (2S,5R)-N-(1-(2,4-difluorophenyl)cyclopentyl)-8-hydroxy-7,9-dioxo-2,3,4,5,7,9,13,13a-octahydro-2,5-methanopyrido[1′,2′:4,5]pyrazino[2,1-b][1,3]oxazepine-10-carboxamide] showed an Emax at 24 h, 15 µM on PXR of 17%. The molecule further registered a CC50 at 5 days in “in vitro” of 3970 nM.

`O=C(NCc1ccccc1F)c1cn2c(c(O)c1=O)C(=O)N1[C@@H]3CC[C@@H](C3)O[C@H]1C2` [Compound 23, (2S,5R,13aS)-N-(2-fluorobenzyl)-8-hydroxy-7,9-dioxo-2,3,4,5,7,9,13,13a-octahydro-2,5-methanopyrido[1′,2′:4,5]pyrazino[2,1-b][1,3]oxazepine-10-carboxamide] displayed an Emax at 24 h, 15 µM at PXR of 45%. In addition, the CC50 at 5 days in “in vitro” was determined as 13400 nM.
